The source of these data is patent publication US10889572B2, “Reactive oxygen species scavengers and use for treating diseases” (XW LABORATORIES INC., priority 2017, dated 2021).

Molecules are shown by their SMILES. Structures can show the parent of a compound that is named as a salt.

The first experiment has as its system HT-1080 (fibrosarcoma) cells. The experiment in a line: Primary screening by ferroptosis assay (Erastin-induced, cell viability, CellTiter-Glo). The format is cell-based. The note with it: HT-1080 cells, 30 hours, % remaining activity, read-out: EC50, Inhibition for Ferroptosis in HT-1080 Cell. Here is the method:
Cell Lines and Media: HT-1080 (fibrosarcoma) cells were obtained from American Type Culture Collection. Cells were grown in EMEM media, 10% Heat-Inactivated FBS, and penicillin-streptomycin mix (Invitrogen). Cells were maintained at 37° C. and 5% CO2 in a tissue culture incubator.
Cell Viability Assay: Seed 10,000 cell/well of HT-1080 cells with 195 μL growth media in black and clear bottom 96-well plates (Cat #Corning 3904) and allow cells to adhere overnight. The next day, dilute test compound by 2-fold dilution into 12 points with medium containing 400 μM Erastin. Transfer 5 μL of compounds solution into growth medium in triplicated wells. 30 hours later, add Cell Titer-Glo® Luminescent cell viability assay reagent (Cat #, Promega G8081) to measure HT-1080 cell viability according to the manufacture protocol. Briefly, aspirate 100 μL medium, and add 50 μL CellTiter-Glo® Luminescent reagent to each well and incubated for 30 minutes at room temperature to stabilize the Luminescent signal. Seal the plates and centrifuged for 1 minute at 1,000 rpm to remove bubbles. Shake the plates for 1 minute on an orbital shaker. Read the plate to detect Luminescent signal with EnSpire Multimode Plate Reader (PerkinElmer). The remaining activity % is used to evaluate Erastin induced ferroptosis in HT-1080 cells and expressed as the following formula: % Remaining Activity−100×[(Sample−Backgroundavg)/(Vehicle−Background avg)]
Sample: Readout from the test compound
Vehicle: Readout from the vehicle sample
Background: Readout from the Erastin only treatment
Dose response curve is graphed by using the non-linear regression analysis (formula equation 201) in XLFit (Excel add-in software) for the average % remaining activity from triplicates, and the EC50 values is then calculated. In this anti-ferroptosis assay, ferrostatin-1, and XJB-5-131 are included as reference. The acceptance criteria were set based on historical result, mean±2.58*SD in logarithmic scale, meanwhile Z′>0.5.
Consider `CC(C)C[C@@H](/C=C/[C@H](Cc1ccccc1)C(=O)N1CCC[C@H]1C(=O)N[C@H](C(=O)N[C@@H](CCCNC(=O)OCc1ccccc1)C(=O)NC1CC(C)(C)N([O])C(C)(C)C1)C(C)C)NC(=O)OC1CC(C)(C)N([O])C(C)(C)C1` [Example VIII, 1-Oxyl-2,2,6,6-tetramethylpiperidin-4-yl N-[(4S,5E,7S)-7-benzyl-8-[(2S)—2-{[(1S)—1-{[(1S)—4-{[(benzyloxy)carbonyl]amino}-1-[(1-oxyl-2,2,6,6-tetramethylpiperidin-4-yl)carbamoyl]butyl]carbamoyl}-2-methylpropyl]carbamoyl}pyrrolidin-1-yl]-2-methyl-8-oxooct-5-en-4-yl]carbamate], for which the half-maximal effective concentration (EC50) (usually the concentration needed to bring the measured effect to its halfway point) came to 0.266 µM.

With `COC(=O)[C@H](CCCNC(=O)OC1CC(C)(C)N(O)C(C)(C)C1)NC(=O)[C@@H](NC(=O)[C@@H]1CCCN1C(=O)[C@H](/C=C/[C@H](CC(C)C)NC(=O)OC(C)(C)C)Cc1ccccc1)C(C)C` [XXXIX, (S)-methyl 2-((S)-2-((S)-1-((2S,5S,E)-2-benzyl-5-((tert-butoxycarbonyl)amino)-7-methyloct-3-enoyl)pyrrolidine-2-carboxamido)-3-methylbutanamido)—5-((((1-hydroxy-2,2,6,6-tetramethylpiperidin-4-yl)oxy)carbonyl)amino)pentanoate], the EC50 was 0.142 µM.

For `CC(C)C[C@@H](/C=C/[C@H](Cc1ccccc1)C(=O)N1CCC[C@H]1C(=O)N[C@@H](CCCCNC(=O)OCc1ccccc1)C(=O)NC1CC(C)(C)N(O)C(C)(C)C1)NC(=O)OC(C)(C)C` [Example XXVII, Benzyl N-[(5S)—5-{[(2S)-1-[(2S,3E,5S)-2-benzyl-5-{[(tertbutoxy)carbonyl]amino}-7-methyloct-3-enoyl]pyrrolidin-2-yl]formamido}-5-[(1-hydroxy-2,2,6,6-tetramethylpipe-ridin-4-yl)carbamoyl]pentyl]carbamate], the concentration giving a half-maximal response (EC50) amounted to 0.141 µM.

As to `CC(C)C[C@@H](/C=C/[C@H](Cc1ccccc1)C(=O)N1CCC[C@H]1C(=O)N[C@@H](CCCNC(=O)OC(C)(C)C)C(=O)NC1CC(C)(C)N([O])C(C)(C)C1)NC(=O)OC(C)(C)C` [Example XX, tert-Butyl N-(4-{[(2S)-1-[(2R,3E,5S)-2-benzyl-5-{[(tert-butoxy)carbonyl]amino}-7-methyloct-3-enoyl]pyrrolidin-2-yl]formamido}-4-[(1-oxyl-2,2,6,6-tetramethylpiperidin-4-yl)carbamoyl]butyl)carbamate], the EC50 was found to be 0.532 µM.

The experiment is the same for the next values; noted with them: Homo sapiens, HT-1080, 30 h, HT-1080 cells, % remaining activity, read-out: EC50, Inhibition for Ferroptosis in HT-1080 Cell.
In the case of `CC(C)C[C@@H](/C=C/[C@H](Cc1ccccc1)C(=O)N1CCC[C@H]1C(=O)N[C@@H](CCCNC(=O)OC1CC(C)(C)N(O)C(C)(C)C1)C(=O)NC1CC(C)(C)N(O)C(C)(C)C1)NC(=O)OC(C)(C)C` [XXXXIII, 1-Hydroxy-2,2,6,6-tetramethylpiperidin-4-yl N-[(4S)—4-{[(2S)-1-[(2S,3E,5S)-2-benzyl-5-{[(tert-butoxy)carbonyl]amino}-7-methyloct-3-enoyl]pyrrolidin-2-yl]formamido}-4-[(1-hydroxy-2,2,6,6-tetramethylpiperidin-4-yl)carbamoyl]butyl]carbamate], the concentration for a half-maximal effect (EC50) was found to be 0.123 µM. Still for that read-out and setting: under `CC(C)C[C@@H](/C=C/[C@H](Cc1ccccc1)C(=O)N1CCC[C@H]1C(=O)N[C@H](CCCCNC(=O)OC1CC(C)(C)N(O)C(C)(C)C1)C(=O)O)NC(=O)OC(C)(C)C` [XXXIV, (2R)—2-{[(2S)-1-[(2S,3E,5S)-2-benzyl-5-{[(tert-butoxy)carbonyl]amino}-7-methyloct-3-enoyl]pyrrolidin-2-yl]formamido}-6-({[(1-oxyl-2,2,6,6-tetramethylpiperidin-4-yl)oxy]carbonyl}amino)hexanoic acid] stands over 4 µM.

As for `CC(C)C[C@@H](/C=C/[C@H](Cc1ccccc1)C(=O)N1CCC[C@H]1C(=O)N[C@@H](Cc1ccc(O)cc1)C(=O)NC1CC(C)(C)N(O)C(C)(C)C1)NC(=O)OC(C)(C)C` [Example XVI, tert-Butyl N-[(4S,5E,7S)-7-benzyl-8-[(2S)—2-{[(1S)-1-[(1-hydroxy-2,2,6,6-tetramethylpiperidin-4-yl)carbamoyl]-2-(4-hydroxyphenyl)ethyl]carbamoyl}pyrrolidin-1-yl]-2-methyl-8-oxooct-5-en-4-yl]carbamate], the EC50 was 0.536 µM. Regarding `CC(C)C[C@@H](/C=C/[C@H](Cc1ccccc1)C(=O)N1CCC[C@H]1C(=O)N[C@@H](CCCCNC(=O)OC1CC(C)(C)N(O)C(C)(C)C1)C(=O)NC(C)(C)C)NC(=O)OC(C)(C)C` [Example XXXVI, tert-Butyl N-[(4S,5E,7S)-7-benzyl-8-[(2S)—2-{[(1S)-1-(tert-butylcarbamoyl)-5-({[(1-oxyl-2,2,6,6-tetramethylpiperidin-4-yl)oxy]carbonyl}amino)pentyl]-carbamoyl}pyrrolidin-1-yl]-2-methyl-8-oxooct-5-en-4-yl]carbamate], the EC50 amounted to 0.142 µM. Consider `CC(C)C[C@@H](/C=C/[C@H](Cc1ccccc1)C(=O)N1CCC[C@H]1C(=O)N[C@@H](CCCCNC(=O)OC1CC(C)(C)N(O)C(C)(C)C1)C(=O)NC(C)C)NC(=O)OC(C)(C)C` [Example XXXVII, tert-Butyl N-[(4S,5E,7S)-7-benzyl-8-[(2S)—2-{[(1S)-5-({[(1-oxyl-2,2,6,6-tetramethylpiperidin-4-yl)oxy]carbonyl}amino)-1-[(propan-2-yl)carbamoyl]pentyl]carbamoyl}pyrrolidin-1-yl]-2-methyl-8-oxooct-5-en-4-yl]carbamate], for which the EC50 was determined as 0.201 µM. Same read-out and setting: under `CC(C)C[C@@H](/C=C/C(Cc1ccccc1)C(=O)N1CCC[C@H]1C(=O)N[C@H](C(=O)N[C@@H](CCCNC(=O)OCc1ccccc1)C(=O)NC1CC(C)(C)N(O)C(C)(C)C1)C1CC1)NC(=O)OC(C)(C)C` (stereo in doubt) [Example XII, Benzyl N-[(4S)-4-[(2S)—2-{[(2S)-1-[(2R,3E,5S)-2-benzyl-5-{[(tert-butoxy)carbonyl]amino}-7-methyloct-3-enoyl]pyrrolidin-2-yl]formamido}-2-cyclopropylacetamido]-4-[(1-hydroxy-2,2,6,6-tetramethylpiperidin-4-yl)carbamoyl]butyl]carbamate] stands 0.481 µM; under `COC(=O)[C@H](CCCNC(=O)OC1CC(C)(C)N(O)C(C)(C)C1)NC(=O)[C@@H]1CCCN1C(=O)[C@H](/C=C/[C@H](CC(C)C)NC(=O)OC(C)(C)C)Cc1ccccc1` [Example XVIII], 0.086 µM; under `CC(C)C[C@H](N)/C=C/[C@H](Cc1ccccc1)C(=O)N1CCC[C@H]1C(=O)N[C@H](CCCNC(=O)OCc1ccccc1)C(=O)NC1CC(C)(C)N(O)C(C)(C)C1` [Example XIII, Benzyl N-[(4R)—4-{[(2S)-1-[(2S,3E,5S)-5-amino-2-benzyl-7-methyloct-3-enoyl]pyrrolidin-2-yl]formamido}-4-[(1-hydroxy-2,2,6,6-tetramethyl-piperidin-4-yl)carbamoyl]butyl]carbamate dihydrochloride], 0.262 µM. Same read-out and setting: next, `CC(C)C[C@@H](/C=C/[C@H](Cc1ccccc1)C(=O)N1CCCC1C(=O)N[C@@H](CCCCNC(=O)OC1CC(C)(C)N(O)C(C)(C)C1)C(=O)OC1CCCCC1)NC(=O)OC(C)(C)C` (stereo in doubt) [Example XXXXVI, (S)—Cyclohexyl 2-((R)-1-((2S,5S,E)-2-benzyl-5-((tert-butoxycarbonyl)amino)-7-methyloct-3-enoyl)pyrrolidine-2-carboxamido)-6-((((1-hydroxy-2,2,6,6-tetramethylpiperidin-4-yl)oxy)carbonyl)amino)hexanoate]: 0.0663 µM; `Cc1cc(O)cc(C)c1CNC(=O)[C@H](CCCNC(=O)OCc1ccccc1)NC(=O)[C@@H]1CCCN1C(=O)[C@H](/C=C/[C@H](CC(C)C)NC(=O)OC(C)(C)C)Cc1ccccc1` [Example XXIV, Benzyl N-[(4S)—4-{[(2S)-1-[(2S,3E,5S)-2-benzyl-5-{ [(tert-butoxy)carbonyl]amino}-7-methyloct-3-enoyl]pyrrolidin-2-yl]formamido}-4-{[(4-hydroxy-2,6-dimethylphenyl)methyl]carbamoyl}butyl]carbamate]: over 4 µM.
